# Reference: patent publication US7727949B2, “Cleaning agent for thermostatic chambers” (Wako Pure Chemical Industries, Ltd., priority 2005, dated 2010)
# Columns and labels:
# Assay type in all cases: cell-based
# [1] = test system: Staphylococcus aureus (NBRC12732); experiment: Study of antimicrobial activity in the presence of proteins (MIC)
# Experimental: (§1) GOT (glutamic-oxaloacetic transaminase) solution: GOT Substrate-Enzyme solution and GOT-2α•KG solution which were components of L type Wako GOT•J2 kit (produced by Wako Pure Chemical Industries, Ltd.) were prepared with distilled water so as to become a 0.2 w/w % aqueous solution.
# (§2) GPT (glutamic-pyruvic transaminase) solution: GOT Substrate-Enzyme solution and GOT•2α-KG solution which were components of L type Wako GPT•J2 kit (produced by Wako Pure Chemical Industries, Ltd.) were prepared with distilled water so as to become a 0.2 w/w % aqueous solution.
# (§3) Serum: Control Serum II Wako (produced by Wako Pure Chemical Industries, Ltd.) was prepared with distilled water so as to become a 0.2 w/w % aqueous solution with distilled water.
# (§4) In a sterilized petri dish having a diameter of 90 mm, an aqueous solution which was obtained by diluting each of agents with distilled water was added such that a concentration of the agent become each predetermined concentrations when the solution is prepared to a total volume of 20 mL, and the agent aqueous solution and a reagent solution such that a final concentration of each of components (GOT, GPT, and serum) in the reagent become 100 μg/mL when the solution is prepared to a total volume of 20 mL. And then, sterilized water was added into the petri dish such that a total volume of sterilized water and the agent aqueous solution become 2 mL. Further, 18 mL of nutrient agar medium, which was sterilized with high pressure steam and preserved at 50° C.±2° C., was added into the petri dish, and it was solidified to obtain an agar plate medium. Furthermore, as a reference, agar plate medium obtained by using pure water instead of the agent solution was also prepared.
# (§5) The individual test microorganisms, which was preliminarily cultured in bouillon medium in advance until 1×10^8 microorganisms/mL, was diluted with sterilized physiological saline for 100 times (to 1×10^6 microorganisms/mL). Next, the prepared solution of the test microorganisms was smeared with a platinum loop on the surface of the agar plate medium prepared in (2), and the medium was cultured at 35° C.±2° C. for 24 hours.
# (§6) After the cultivation, confirming the presence or not of the growth of the microorganism on the surface of the medium was conducted, a minimum concentration of the agent, where growth of the microorganisms cannot be recognized, was determine as the minimum inhibitory concentration (MIC, μg/mL) of the agent.
# [2] = test system: Bacillus subtilis (NBRC13719); experiment: as above
# Experimental: as §1, §2, §3, §4, §5, §6
# [3] = test system: Escherichia coli (NBRC3972); experiment: as above
# Experimental: as §1, §2, §3, §4, §5, §6
# [4] = test system: Pseudonas aeruginosa (NBRC12689); experiment: as above
# Experimental: as §1, §2, §3, §4, §5, §6
# [5] = test system: Bacillus subtilis (NBRC13719); experiment: Study of germicidal activity of agents in the presence of proteins; parameters: key: a case where growth of the microorganism on the surface of the medium was recognized is shown by +; a case where growth of the microorganism on the surface of the medium was not recognized is shown by −; settings: agent 50 μg/mL
# Experimental: (§7) Didecyldimethylammonium adipate (DDAA), N-bis(3-aminopropyl)dodecylamine (TAA) and benzalkonium chloride were respectively prepared such that a concentration thereof is 1 w/w %.
# (§8) GOT solution: GOT Substrate-Enzyme solution and GOT•L2α-KG solution which were components of L type Wako GOT•J2 kit (produced by Wako Pure Chemical Industries, Ltd.) were prepared with distilled water so as to become a 0.1 w/w % aqueous solution.
# (§9) GPT solution: GOT Substrate-Enzyme solution and GOT•L2α-KG solution which were components of L type Wako GPT•J2 kit (produced by Wako Pure Chemical Industries, Ltd.) were prepared with distilled water so as to become a 0.1 w/w % aqueous solution.
# (§10) Serum: Control Serum II Wako (produced by Wako Pure Chemical Industries, Ltd.) was prepared with distilled water so as to become a 0.1 w/w % aqueous solution.
# (§11) i) The individual test microorganism, which was preliminarily cultured in bouillon medium in advance until 1×10^8 microorganisms/mL, were diluted with sterilized physiological saline for 100 times (to 1×10^6 microorganisms/mL) to obtain a solution of test microorganisms. ii) Into a 20 mL test tube made of glass which was preliminarily sterilized by dry-heat sterilization, the agent aqueous solution, the reagent solution and the solution of test microorganisms as prepared in the above described i) were added such that a final concentration of the agent become 50 μg/mL, a final concentration of the reagent become 100 μg/mL, and the number of test microorganisms become 1×10^5 microorganisms/mL, respectively, when a total volume thereof is prepared to be 10 mL. And then, the tube was sufficiently stirred. iii) After a lapse of predetermined times (5 min, 10 min, and 15 min), the solution as obtained in the above described ii) was smeared with a platinum loop on the surface of the nutrient agar plate medium preliminarily having been prepared, and the medium was cultured at 35° C.±2° C. for 24 hours. iv) After the cultivation, confirming the presence or not of the growth of the microorganisms on the surface of the medium was conducted. (3) Result
# (§12) In Table 3, a case where growth of the microorganism on the surface of the medium was recognized is shown by +, and a case where growth of the microorganism on the surface of the medium was not recognized is shown by −, respectively.
# [6] = test system: Staphylococcus aureus (NBRC12732); experiment: as above; parameters: key to growth of the microorganism S.a: a case where growth of the microorganism on the surface of the medium was recognized is shown by +; a case where growth of the microorganism on the surface of the medium was not recognized is shown by −; settings: for growth of the microorganism S.a: agent 50 μg/mL
# Experimental: as §7, §8, §9, §10, §11, §12
# [7] = test system: Pseudonas aeruginosa (NBRC12689); experiment: as above; parameters: key to growth of the microorganism P.a: a case where growth of the microorganism on the surface of the medium was recognized is shown by +; a case where growth of the microorganism on the surface of the medium was not recognized is shown by −; settings: for growth of the microorganism P.a: agent 50 μg/mL
# Experimental: as §7, §8, §9, §10, §11, §12
# [8] = data are not shown, effect does not change in the presence of protein
smiles,measurement,setting,value
"CCCCCCCCCCCCN(CCCN)CCCN [TAA, N-bis(3-aminopropyl)dodecylamine]",Minimum Inhibitory Concentration S.a,[1]; GOT 100 μg/mL,10 µg/mL
same,Minimum Inhibitory Concentration S.a,[1]; GPT 100 μg/mL,10 µg/mL
same,Minimum Inhibitory Concentration S.a,[1]; Pure Water,10 µg/mL
same,Minimum Inhibitory Concentration S.a,[1]; Serum 100 μg/mL,10 µg/mL
same,Minimum Inhibitory Concentration B.s,[2]; GOT 100 μg/mL,10 µg/mL
same,Minimum Inhibitory Concentration B.s,[2]; GPT 100 μg/mL,10 µg/mL
same,Minimum Inhibitory Concentration B.s,[2]; Pure Water,10 µg/mL
same,Minimum Inhibitory Concentration B.s,[2]; Serum 100 μg/mL,10 µg/mL
same,Minimum Inhibitory Concentration E.c,[3]; GOT 100 μg/mL,50 µg/mL
same,Minimum Inhibitory Concentration E.c,[3]; GPT 100 μg/mL,50 µg/mL
same,Minimum Inhibitory Concentration E.c,[3]; Pure Water,50 µg/mL
same,Minimum Inhibitory Concentration E.c,[3]; Serum 100 μg/mL,50 µg/mL
same,Minimum Inhibitory Concentration P.a,[4]; GOT 100 μg/mL,100 µg/mL
same,Minimum Inhibitory Concentration P.a,[4]; GPT 100 μg/mL,100 µg/mL
same,Minimum Inhibitory Concentration P.a,[4]; Pure Water,10 µg/mL
same,Minimum Inhibitory Concentration P.a,[4]; Serum 100 μg/mL,100 µg/mL
same,growth of the microorganism B.s,"[5]; GOT, 5 min",+
same,growth of the microorganism B.s,"[5]; GOT, 10 min",+
same,growth of the microorganism B.s,"[5]; GOT, 15 min",+
same,growth of the microorganism B.s,"[5]; GPT, 5 min",+
same,growth of the microorganism B.s,"[5]; GPT, 10 min",+
same,growth of the microorganism B.s,"[5]; GPT, 15 min",+
same,growth of the microorganism B.s,"[5]; Serum, 5 min",+
same,growth of the microorganism B.s,"[5]; Serum, 10 min",+
same,growth of the microorganism B.s,"[5]; Serum, 15 min",+
same,growth of the microorganism S.a,"[6]; GOT, 5 min",−
same,growth of the microorganism S.a,"[6]; GOT, 10 min",−
same,growth of the microorganism S.a,"[6]; GOT, 15 min",−
same,growth of the microorganism S.a,"[6]; GPT, 5 min",−
same,growth of the microorganism S.a,"[6]; GPT, 10 min",−
same,growth of the microorganism S.a,"[6]; GPT, 15 min",−
same,growth of the microorganism S.a,"[6]; Serum, 5 min",−
same,growth of the microorganism S.a,"[6]; Serum, 10 min",−
same,growth of the microorganism S.a,"[6]; Serum, 15 min",−
same,germicidal activity to Staphylococcus aureus,[6]; [8],high germicidal activity
same,growth of the microorganism P.a,"[7]; GOT, 5 min",−
same,growth of the microorganism P.a,"[7]; GOT, 10 min",−
same,growth of the microorganism P.a,"[7]; GOT, 15 min",−
same,growth of the microorganism P.a,"[7]; GPT, 5 min",−
same,growth of the microorganism P.a,"[7]; GPT, 10 min",−
same,growth of the microorganism P.a,"[7]; GPT, 15 min",−
same,growth of the microorganism P.a,"[7]; Serum, 5 min",−
same,growth of the microorganism P.a,"[7]; Serum, 10 min",−
same,growth of the microorganism P.a,"[7]; Serum, 15 min",−
same,germicidal activity to Pseudonas aeruginous,[7]; [8],high germicidal activity
